Legend:
[1] = tested on: non-specific promoter (BAX promoter-driven luciferase) in HEK-293T cells; assay: irrelevant promoter-containing cell-based reporter assay (luciferase driven by the BAX promoter, control); conditions: BAX promoter luciferase in HEK-293T cells, indicator of non-specific toxicity
[2] = tested on: influenza A/Puerto Rico/8/34 virus; assay: Hemagglutination assay of influenza A replication in MDCK cells; assay type: cell-based; conditions: 75 uM compound, influenza A/Puerto Rico/8/34 dilution series, FIG. 5A
[3] = tested on: influenza A reporter assay system (viral UTR promoter / viral RNA-dependent RNA polymerase); assay type: cell-based, Influenza A virus (mouse B16-F10 melanoma cells)

SMILES: O=C(Nc1ccc(S(=O)(=O)Nc2nccs2)cc1)c1cc(-c2ccccc2)nc2ccccc12 [A0259, 2-phenyl-N-{4-[(1,3-thiazol-2-yl)sulfamoyl]phenyl}quinoline-4-carboxamide]
- impact on a non-specific promoter [1]: smallest impact
- inhibition of influenza A viral replication in recipient cells (hemagglutination, settling cell buttons) [2]: viral dilutions below a thousand-fold from stock were inhibited from successfully replicating
- inhibition of the influenza reporter system [3]: most dramatic inhibition

Reference: patent publication US9315464B1 (priority 2013, dated 2016)
